Assay results reported in ChEMBL document CHEMBL1201862, “PubChem BioAssay data set” (2004).
Several values for one entry are separate records, joined by “and”; a condition that tells them apart may be missing. Equal values may be shown once. Activity calls are given as the source filed them. Rule as the data show it, for most assays here: actives have a measured AC50 and inactives only a lower limit.

Columns and labels:
[1] = CEM21 cell cytotoxicity, dose response, cytotoxicity control, plate reader, dry powder (AID 687026); format: functional, cell-based
[2] = HIV Env cell-cell fusion inhibitors, dose response, HIV entry, plate reader, dry powder (AID 687023); format: functional, cell-based
[3] = target: NAD-dependent protein deacylase sirtuin-5, mitochondrial (Homo sapiens, UniProt Q9NXA8); test: SIRT5 deacylase inhibitors, dose response, biochemical, fluorescence imaging, cherry-pick, set 6 (AID 720597)
NAD-dependent protein deacylase sirtuin-5, mitochondrial, sequence (Q9NXA8 whole entry): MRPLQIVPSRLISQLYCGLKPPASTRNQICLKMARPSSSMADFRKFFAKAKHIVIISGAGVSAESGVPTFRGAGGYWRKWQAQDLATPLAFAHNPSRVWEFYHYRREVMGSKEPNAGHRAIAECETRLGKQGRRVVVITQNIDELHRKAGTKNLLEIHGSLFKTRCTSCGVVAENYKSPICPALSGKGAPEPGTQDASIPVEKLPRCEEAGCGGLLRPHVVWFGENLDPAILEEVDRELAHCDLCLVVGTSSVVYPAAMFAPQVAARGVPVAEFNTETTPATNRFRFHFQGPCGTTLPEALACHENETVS

[4] = HepG2 cell cytotoxicity, dose response, cytotoxicity control, plate reader, cherry-pick, antagonist series (AID 743416); format: functional, cell-based
[5] = HepG2 cell cytotoxicity, dose response, cytotoxicity control, cherry-picks, set 5 (AID 1053118); format: functional, cell-based
[6] = A549 cell cytotoxicity, dose response, cytotoxicity control, cherry-picks, 26 µM top dose (AID 1053119); format: functional, cell-based
[7] = LGR2 antagonists, dose response, cell-based, HEK293, CRE-luciferase reporter, cherry pick, set 2 (AID 743343); format: functional;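 also: transfected cells were stimulated with diluted bursicon conditioned medium after compound addition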
[8] = MC4R antagonists, dose response, counter-screen for LGR2 antagonist project, cell-based, plate reader, cherry pick (AID 743444); format: functional;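 also: transfected HEK 293 cells stimulated with alpha-MSH peptide; potency of inhibitors of the alpha-MSH evoked signal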
[9] = inhibitors of fibronectin matrix deposition, dose response, AH1F cells, Alexa488-FN fluorescence, cherry-picks (AID 1035475); format: functional, cell-based
[10] = HEK293 cell cytotoxicity, dose response, cytotoxicity control, plate reader, cherry-picked samples (AID 743446); format: functional, cell-based
[11] = HEK293 cell cytotoxicity, dose response, cytotoxicity control, cherry-picks, set 5 (AID 1053117); format: functional, cell-based
[12] = A549 cell cytotoxicity, dose response, cytotoxicity control, plate reader, cherry-pick, antagonist series (AID 743412); format: functional, cell-based
[13] = BHK-21 cell cytotoxicity, cytotoxicity control for flavivirus guanylyltransferase probe project, secondary screen (AID 624078); format: functional
[14] = target: E3 ubiquitin-protein ligase UHRF1 (Homo sapiens, UniProt Q96T88); test: Counterscreen for inhibitors of 5-meCpG-binding domain protein 2 (MBD2): TRFRET-based biochemical high throughput dose response assay to identify inhibitors of binding of ubiquitin-like with PHD and ring finger domains 1 (UHRF1) to methylated oligonucleotide.
E3 ubiquitin-protein ligase UHRF1, sequence (Q96T88 whole entry, the tested form may be a part): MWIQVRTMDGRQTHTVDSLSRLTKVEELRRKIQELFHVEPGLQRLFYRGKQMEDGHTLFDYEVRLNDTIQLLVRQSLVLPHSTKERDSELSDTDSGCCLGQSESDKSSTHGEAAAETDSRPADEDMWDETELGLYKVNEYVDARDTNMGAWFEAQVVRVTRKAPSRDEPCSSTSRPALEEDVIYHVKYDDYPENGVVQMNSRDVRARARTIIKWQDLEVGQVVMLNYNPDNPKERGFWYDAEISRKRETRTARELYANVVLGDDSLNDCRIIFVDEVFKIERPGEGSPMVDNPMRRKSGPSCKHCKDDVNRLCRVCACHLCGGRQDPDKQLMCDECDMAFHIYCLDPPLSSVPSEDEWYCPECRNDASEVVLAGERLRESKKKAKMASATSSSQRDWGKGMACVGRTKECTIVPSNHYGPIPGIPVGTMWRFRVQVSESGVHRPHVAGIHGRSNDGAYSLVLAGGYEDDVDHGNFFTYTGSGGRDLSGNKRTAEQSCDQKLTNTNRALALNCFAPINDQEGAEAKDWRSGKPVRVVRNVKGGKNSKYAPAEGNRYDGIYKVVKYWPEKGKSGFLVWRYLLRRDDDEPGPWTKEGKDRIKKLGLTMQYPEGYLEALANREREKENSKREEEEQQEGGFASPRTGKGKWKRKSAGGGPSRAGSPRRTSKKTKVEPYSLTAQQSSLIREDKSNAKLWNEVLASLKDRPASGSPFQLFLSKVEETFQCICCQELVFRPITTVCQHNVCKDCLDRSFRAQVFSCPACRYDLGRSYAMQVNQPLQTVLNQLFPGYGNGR

[15] = inhibitors of non-replicating M. tuberculosis, dose response, luciferase, dry powder (AID 651619); format: functional; conditions: Mycobacterium tuberculosis
[16] = inhibitors of non-replicating M. tuberculosis, dose response, luciferase, dry powder (AID 651620); format: functional; conditions: Mycobacterium tuberculosis
[17] = HEK293T cell cytotoxicity, dose response, cytotoxicity control, luminescence plate reader, powder samples, set 4 (AID 651863); format: functional, cell-based; conditions: HEK293
[18] = target: G-protein coupled receptor 183 (Homo sapiens, UniProt P32249); test: SAR confirmation of small molecule antagonists of the EBI2 receptor via a luminescent beta-arrestin assa.; format: functional
G-protein coupled receptor 183, sequence (P32249 whole entry): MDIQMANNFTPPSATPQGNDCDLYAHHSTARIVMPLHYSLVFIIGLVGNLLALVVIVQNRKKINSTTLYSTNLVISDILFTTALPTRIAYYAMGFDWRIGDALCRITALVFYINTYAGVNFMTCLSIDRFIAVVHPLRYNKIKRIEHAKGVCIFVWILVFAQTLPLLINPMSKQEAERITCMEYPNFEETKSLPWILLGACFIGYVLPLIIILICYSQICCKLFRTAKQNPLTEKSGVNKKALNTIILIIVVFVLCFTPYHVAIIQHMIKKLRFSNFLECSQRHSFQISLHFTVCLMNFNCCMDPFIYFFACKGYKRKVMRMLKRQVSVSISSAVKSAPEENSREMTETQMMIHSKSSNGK

cells = conditions: HEK293
[19] = A549 cell cytotoxicity, dose response, cytotoxicity control, plate reader, dry powder, set 6 (AID 743312); format: functional, cell-based

In the case of `CCOc1ccc(S(=O)(=O)NCc2ccncc2)cc1Cl`, the AC50 [1] is reported as > 70 µM (inactive) and the AC50 [2] is reported as 92.5 nM (active) and 125 nM (active).

With `C[C@@H]1CCCCO[C@H](CN(C)Cc2ccccc2)[C@H](C)CN([C@H](C)CO)C(=O)c2cc(NC(=O)CCC(F)(F)F)ccc2O1` the AC50 [3] was > 30 µM (inactive).

With `C[C@@H]1CN([C@H](C)CO)C(=O)c2cccc(NC(=O)Nc3ccc(C(F)(F)F)cc3)c2O[C@@H]1CN(C)C(=O)Nc1cccc2ccccc12` the AC50 [4] was 19.6 µM (active), the AC50 [5] was 32.5 µM (active) and the AC50 [6] was 24.3 µM (active). The AC50 [7] was 19.4 µM (active), the AC50 [8] was 14.3 µM (active) and the AC50 [9] was 7.47 µM (active). For the same molecule, the AC50 [10] was 14.8 µM (active), the AC50 [11] was 29.2 µM (active) and the AC50 [12] was 16.4 µM (active).

For `Cc1cc(F)ccc1S(=O)(=O)Nc1cc(SCC(=O)O)c(O)c2ccccc12`, the CC50 [13] was 10.7 µM (active).

For `CC(=O)Nc1sc2c(c1-c1nc3ccccc3s1)CCN(C)C2`, the IC50 [14] was 25.7 µM (inactive).

With `c1ccc(-c2nnc(SCc3cccnc3)o2)cc1` the IC90 [15] was 8 µM (active) and the IC90 [16] was 8 µM (active).

For `CC(=O)Nc1cc(NS(=O)(=O)c2c(C)cc(C)cc2C)c2ccccc2c1O`, the AC50 [17] was 32.3 µM (active).

In the case of `O=C(/C=C/c1ccc(Br)cc1)N1CCN(Cc2cc(F)cc(F)c2)CC1`, the IC50 [18] is reported as 0.00221 µM (active).

For `Cc1cccc(OCCn2c(=S)[nH]c3ccc(C(F)(F)F)cc32)c1`, the AC50 (cells) was 35.9 µM (active) and the AC50 [19] was 15.6 µM (active).
